Publication PMC6219668 (Oncotarget, 2018)
Like-named read-outs stand apart in the source and are kept apart here.

Tested on: panel of nearly 500 cancer cell lines
Assay: Cancer Cell Line Encyclopedia profiling, 3-day CellTiter-Glo
Type: cell-based
Details: read-out: IC50

CC(=O)c1c(C)c2cnc(Nc3ccc(N4CCNCC4)cn3)nc2n(C2CCCC2)c1=O [Palbociblib]
IC50 (loximvi (skin)): > 8 µM | IC50 (ls123 (large_intestine)): > 8 µM | IC50 (ls513 (large_intestine)): 4.53 µM | IC50 (lu99 (lung)): 2.55 µM | IC50 (ludlu1 (lung)): > 8 µM | IC50 (m059j (central_nervous_system)): > 8 µM | IC50 (malme3m (skin)): > 8 µM | IC50 (mc116 (haematopoietic_and_lymphoid_tissue)): 8 µM | IC50 (mcas (ovary)): > 8 µM | IC50 (mcf7 (breast)): > 8 µM | IC50 (mdamb157 (breast)): > 8 µM | IC50 (mdamb175vii (breast)): > 8 µM | IC50 (mdamb415 (breast)): 6.74 µM | IC50 (mdamb436 (breast)): > 8 µM | IC50 (mdamb453 (breast)): > 8 µM | IC50 (mdamb468 (breast)): > 8 µM | IC50 (meg01 (haematopoietic_and_lymphoid_tissue)): > 8 µM | IC50 (melho (skin)): > 8 µM | IC50 (messa (soft_tissue)): > 8 µM | IC50 (mfe280 (endometrium)): > 8 µM | IC50 (mg63 (bone)): > 8 µM | IC50 (miapaca2 (pancreas)): > 8 µM | IC50 (mino (haematopoietic_and_lymphoid_tissue)): 1.4 µM | IC50 (mj (haematopoietic_and_lymphoid_tissue)): 4.62 µM | IC50 (mkn7 (stomach)): > 8 µM | IC50 (mkn45 (stomach)): > 8 µM | IC50 (mkn74 (stomach)): > 8 µM | IC50 (moggccm (central_nervous_system)): > 8 µM | IC50 (mpp89 (pleura)): > 8 µM | IC50 (msto211h (pleura)): 5.5 µM | IC50 (ncih23 (lung)): > 8 µM | IC50 (ncih28 (pleura)): 6.05 µM | IC50 (ncih211 (lung)): > 8 µM | IC50 (ncih226 (lung)): > 8 µM | IC50 (ncih322 (lung)): > 8 µM | IC50 (ncih358 (lung)): > 8 µM | IC50 (ncih441 (lung)): > 8 µM | IC50 (ncih520 (lung)): > 8 µM | IC50 (ncih522 (lung)): > 8 µM | IC50 (ncih647 (lung)): > 8 µM | IC50 (ncih650 (lung)): > 8 µM | IC50 (ncih661 (lung)): > 8 µM | IC50 (ncih727 (lung)): > 8 µM | IC50 (ncih747 (large_intestine)): > 8 µM | IC50 (ncih810 (lung)): > 8 µM | IC50 (ncih1048 (lung)): > 8 µM | IC50 (ncih1092 (lung)): > 8 µM | IC50 (ncih1184 (lung)): > 8 µM | IC50 (ncih1341 (lung)): > 8 µM | IC50 (ncih1355 (lung)): > 8 µM | IC50 (ncih1373 (lung)): > 8 µM | IC50 (ncih1563 (lung)): > 8 µM | IC50 (ncih1568 (lung)): > 8 µM | IC50 (ncih1573 (lung)): > 8 µM | IC50 (ncih1581 (lung)): > 8 µM | IC50 (ncih1648 (lung)): > 8 µM | IC50 (ncih1650 (lung)): > 8 µM | IC50 (ncih1651 (lung)): > 8 µM | IC50 (ncih1666 (lung)): > 8 µM | IC50 (ncih1693 (lung)): > 8 µM | IC50 (ncih1694 (lung)): > 8 µM | IC50 (ncih1792 (lung)): > 8 µM | IC50 (ncih1793 (lung)): 2.04 µM | IC50 (ncih1869 (lung)): > 8 µM | IC50 (ncih1915 (lung)): > 8 µM | IC50 (ncih1944 (lung)): 4.49 µM | IC50 (ncih1975 (lung)): > 8 µM | IC50 (ncih2009 (lung)): > 8 µM | IC50 (ncih2023 (lung)): > 8 µM | IC50 (ncih2030 (lung)): > 8 µM | IC50 (ncih2052 (pleura)): > 8 µM | IC50 (ncih2085 (lung)): > 8 µM | IC50 (ncih2087 (lung)): > 8 µM | IC50 (ncih2122 (lung)): > 8 µM | IC50 (ncih2170 (lung)): > 8 µM | IC50 (ncih2172 (lung)): > 8 µM | IC50 (ncih2228 (lung)): > 8 µM | IC50 (ncih2444 (lung)): 6.71 µM | IC50 (ncih2452 (pleura)): > 8 µM | IC50 (ncih3255 (lung)): > 8 µM | IC50 (ncin87 (stomach)): > 8 µM | IC50 (nihovcar3 (ovary)): > 8 µM | IC50 (nugc3 (stomach)): > 8 µM | IC50 (nugc4 (stomach)): 1.61 µM | IC50 (oc314 (ovary)): > 8 µM | IC50 (oc315 (ovary)): > 8 µM | IC50 (oc316 (ovary)): > 8 µM | IC50 (ociaml2 (haematopoietic_and_lymphoid_tissue)): 1.53 µM | IC50 (ocum1 (stomach)): > 8 µM | IC50 (oe21 (oesophagus)): 4.75 µM | IC50 (oe33 (oesophagus)): > 8 µM | IC50 (oncodg1 (ovary)): > 8 µM | IC50 (ons76 (central_nervous_system)): > 8 µM | IC50 (ov90 (ovary)): > 8 µM | IC50 (ovcar4 (ovary)): > 8 µM | IC50 (ovcar8 (ovary)): > 8 µM | IC50 (ovmana (ovary)): > 8 µM | IC50 (ovsaho (ovary)): > 8 µM | IC50 (ovtoko (ovary)): > 8 µM | IC50 (p3hr1 (haematopoietic_and_lymphoid_tissue)): 7.56 µM | IC50 (p31fuj (haematopoietic_and_lymphoid_tissue)): > 8 µM | IC50 (panc0203 (pancreas)): > 8 µM | IC50 (panc0327 (pancreas)): > 8 µM | IC50 (panc0403 (pancreas)): > 8 µM | IC50 (panc1005 (pancreas)): > 8 µM | IC50 (pc3 (prostate)): > 8 µM | IC50 (pfeiffer (haematopoietic_and_lymphoid_tissue)): 6.95 µM | IC50 (pk1 (pancreas)): > 8 µM | IC50 (pk59 (pancreas)): > 8 µM | IC50 (pk45h (pancreas)): > 8 µM | IC50 (pl45 (pancreas)): > 8 µM | IC50 (plcprf5 (liver)): > 8 µM | IC50 (raji (haematopoietic_and_lymphoid_tissue)): > 8 µM | IC50 (rd (soft_tissue)): > 8 µM | IC50 (reh (haematopoietic_and_lymphoid_tissue)): 5.91 µM | IC50 (rerfgc1b (stomach)): > 8 µM | IC50 (rerflcai (lung)): > 8 µM | IC50 (rerflcms (lung)): > 8 µM | IC50 (rkn (soft_tissue)): > 8 µM | IC50 (rko (large_intestine)): > 8 µM | IC50 (rl952 (endometrium)): > 8 µM | IC50 (rt4 (urinary_tract)): > 8 µM | IC50 (rt112 (urinary_tract)): > 8 µM | IC50 (rvh421 (skin)): > 8 µM | IC50 (saos2 (bone)): > 8 µM | IC50 (sbc5 (lung)): > 8 µM | IC50 (scaber (urinary_tract)): > 8 µM | IC50 (scc25 (upper_aerodigestive_tract)): > 8 µM | IC50 (sf126 (central_nervous_system)): > 8 µM | IC50 (sf295 (central_nervous_system)): > 8 µM | IC50 (sf8657 (skin)): > 8 µM | IC50 (sh10tc (stomach)): > 8 µM | IC50 (shp77 (lung)): > 8 µM | IC50 (sjrh30 (soft_tissue)): > 8 µM | IC50 (sjsa1 (bone)): > 8 µM | IC50 (skbr3 (breast)): > 8 µM | IC50 (skco1 (large_intestine)): > 8 µM | IC50 (skes1 (bone)): > 8 µM | IC50 (skhep1 (liver)): > 8 µM | IC50 (sklu1 (lung)): > 8 µM | IC50 (skmel2 (skin)): > 8 µM | IC50 (skmel5 (skin)): > 8 µM | IC50 (skmel24 (skin)): > 8 µM | IC50 (skmel30 (skin)): > 8 µM | IC50 (skmel31 (skin)): > 8 µM | IC50 (skmm2 (haematopoietic_and_lymphoid_tissue)): > 8 µM | IC50 (sknas (autonomic_ganglia)): > 8 µM | IC50 (sknbe2 (autonomic_ganglia)): 4.99 µM | IC50 (skndz (autonomic_ganglia)): > 8 µM | IC50 (sknsh (autonomic_ganglia)): > 8 µM | IC50 (skov3 (ovary)): > 8 µM | IC50 (sngm (endometrium)): > 8 µM | IC50 (snu1 (stomach)): 5.73 µM | IC50 (snu16 (stomach)): > 8 µM | IC50 (snu182 (liver)): > 8 µM | IC50 (snu423 (liver)): > 8 µM | IC50 (snu449 (liver)): > 8 µM | IC50 (snuc2a (large_intestine)): > 8 µM | IC50 (snuc2b (large_intestine)): > 8 µM | IC50 (su8686 (pancreas)): > 8 µM | IC50 (sudhl8 (haematopoietic_and_lymphoid_tissue)): 1.21 µM | IC50 (sudhl10 (haematopoietic_and_lymphoid_tissue)): 3.42 µM | IC50 (suit2 (pancreas)): > 8 µM | IC50 (supm2 (haematopoietic_and_lymphoid_tissue)): 5.92 µM | IC50 (supt1 (haematopoietic_and_lymphoid_tissue)): > 8 µM | IC50 (sw48 (large_intestine)): > 8 µM | IC50 (sw403 (large_intestine)): > 8 µM | IC50 (sw480 (large_intestine)): > 8 µM | IC50 (sw579 (thyroid)): > 8 µM | IC50 (sw620 (large_intestine)): > 8 µM | IC50 (sw780 (urinary_tract)): 1.64 µM | IC50 (sw900 (lung)): > 8 µM | IC50 (sw1271 (lung)): > 8 µM | IC50 (sw1353 (bone)): > 8 µM | IC50 (sw1417 (large_intestine)): > 8 µM | IC50 (sw1990 (pancreas)): > 8 µM | IC50 (t3m10 (lung)): > 8 µM | IC50 (t24 (urinary_tract)): > 8 µM | IC50 (t84 (large_intestine)): > 8 µM | IC50 (t98g (central_nervous_system)): > 8 µM | IC50 (t47d (breast)): > 8 µM | IC50 (tc71 (bone)): > 8 µM | IC50 (tccsup (urinary_tract)): > 8 µM | IC50 (te9 (oesophagus)): > 8 µM | IC50 (te617t (soft_tissue)): 1.01 µM | IC50 (ten (endometrium)): > 8 µM | IC50 (toledo (haematopoietic_and_lymphoid_tissue)): > 8 µM | IC50 (tov21g (ovary)): > 8 µM | IC50 (tov112d (ovary)): > 8 µM
